Measured values from BindingDB's records for doi:10.1016/s0960-894x(00)00136-0 (Iowa State University, 2000).

Experiments:
[1] = target: Endothelin-1 receptor (rabbit); test: Tested for binding affinity towards rabbit Endothelin A receptor
[2] = target: Endothelin receptor type B (rabbit); test: Tested for binding affinity towards rabbit Endothelin B receptor

Q: `C/C=C/C=C/C(=O)O[C@@H]1C=C2COC(O)[C@]2(O)[C@@]2(C)CCCC(C)(C)C12` (stereo partly drawn) [(2E,4E)-Hexa-2,4-dienoic acid (5R,9aS,9bS)-1,9b-dihydroxy-6,6,9a-trimethyl-1,3,5,5a,6,7,8,9,9a,9b-decahydro-naphtho[1,2-c]furan-5-yl ester] was tested. Which IC50 [1] did it give?
A: The IC50 was 50 µM.

Q: And the IC50 [2]?
A: The IC50 was 70 µM.
